Reference: patent publication US7473688B2, “Indolobenzazepine HCV NS5B inhibitors” (Bristol-Myers Squibb Company, priority 2005, dated 2009)
Where two headings read alike, the source gives them in different places.

Columns and labels:
HCV NS5B = target: T1, HCV NS5B (Hepatitis C virus genotype 1b, UniProt Q9WMX2); assay: HCV NS5B RdRp enzyme assay (preincubation protocol); format: biochemical
T1 construct: The protein was expressed with an 18 amino acid C-terminal truncation to enhance the solubility; made in house; host or cells: E. coli BL21 (DE3), pET21a
Summary of the method: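 C-terminally truncated (Δ18) genotype 1b NS5B from E. coli, 14 nM, added to compound, then polyA template (0.2 nM), 3H-UTP (0.29 μM) and oligo-dT12 primer precaptured on streptavidin SPA beads. 4 h at 30 °C, pH 7.5, 2% DMSO; SPA readout; IC50 from seven concentrations by logistic fit.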

HCV replicon = HCV replicon FRET assay; format: cell-based; conditions: Hepatitis C virus
Summary of the method: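 HCV replicon cells, with or without Renilla luciferase reporter, incubated with titrated compounds at 37 °C; Alamar blue read for cytotoxicity. NS3 protease activity read from lysates with 20 μM EDANS/DABCYL FRET peptide (340/490 nm, kinetic), or by Dual-Glo luciferase. Background from highest protease-inhibitor wells; EC50 = 50% signal reduction.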

[1] = Table 1, FRET assay, read-out: EC50*
[2] = Table 1b, FRET assay, read-out: EC50*
[3] = Table 1a, FRET assay, read-out: EC50*

T1 sequence (Q9WMX2 2420-2992): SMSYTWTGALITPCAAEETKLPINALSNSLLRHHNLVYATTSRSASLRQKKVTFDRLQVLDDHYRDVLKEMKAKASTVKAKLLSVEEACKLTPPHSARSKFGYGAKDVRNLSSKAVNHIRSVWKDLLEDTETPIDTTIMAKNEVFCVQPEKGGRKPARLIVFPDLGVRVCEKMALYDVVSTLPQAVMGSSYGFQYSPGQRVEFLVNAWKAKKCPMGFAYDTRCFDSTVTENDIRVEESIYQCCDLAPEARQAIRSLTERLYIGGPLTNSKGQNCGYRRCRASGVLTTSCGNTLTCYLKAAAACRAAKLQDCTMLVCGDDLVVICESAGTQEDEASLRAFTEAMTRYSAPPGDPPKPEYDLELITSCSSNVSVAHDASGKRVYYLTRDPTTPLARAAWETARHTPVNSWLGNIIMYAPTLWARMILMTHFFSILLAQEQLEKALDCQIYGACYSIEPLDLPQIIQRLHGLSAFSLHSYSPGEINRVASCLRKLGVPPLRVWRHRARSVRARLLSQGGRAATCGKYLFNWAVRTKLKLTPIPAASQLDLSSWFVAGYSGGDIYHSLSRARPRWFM

`COc1ccc2c(c1)C=C(C(=O)N1CCOCC1)Cn1c-2c(C2CCCCC2)c2ccc(C(=O)NS(=O)(=O)N3CCN(C)CC3)cc21` gave an IC50 (HCV NS5B; Table 1, read-out: IC50*) of 0.01 to 1 µM and an EC50 (HCV replicon; [1]) of 0.07 to 1 µM.

With `COc1ccc2c(c1)C=C(C(=O)N1CCOC(CF)C1)Cn1c-2c(C2CCCCC2)c2ccc(C(=O)NS(=O)(=O)N(C)C)cc21` (stereo not shown) the IC50 (HCV NS5B; Table 1b, read-out: IC50*) was 0.02 to 1 µM and the EC50 (HCV replicon; [2]) was 0.03 to 1 µM.

`COc1ccc2c(c1)C=C(C(=O)N(C)C[C@@H]1CCCO1)Cn1c-2c(C2CCCCC2)c2ccc(C(=O)NS(=O)(=O)N(C)C)cc21` showed an IC50 (HCV NS5B; Table 1a, read-out: IC50*) of 0.01 to 1 µM and an EC50 (HCV replicon; [3]) of 0.03 to 1 µM.

`COc1ccc2c(c1)CC(C(=O)N1CCC(CO)CC1)Cn1c-2c(C2CCCCC2)c2ccc(C(=O)NS(=O)(=O)N(C)C)cc21` (stereo not shown) showed an IC50 (HCV NS5B; Table 1b, read-out: IC50*) of 0.02 to 1 µM and an EC50 (HCV replicon; [2]) of 0.03 to 1 µM.

`CN1CCN(S(=O)(=O)NC(=O)c2ccc3c(C4CCCCC4)c4n(c3c2)CC(C(=O)N2CCOCC2)=Cc2ccccc2-4)CC1` showed an IC50 (HCV NS5B; Table 1, read-out: IC50*) of 0.01 to 1 µM and an EC50 (HCV replicon; [1]) of 0.07 to 1 µM.

In the case of `O=C(O)C1=Cc2ccccc2-c2c(C3CCCCC3)c3ccc(C(=O)NS(=O)(=O)N4CCOCC4)cc3n2C1`, the IC50 (HCV NS5B; Table 1, read-out: IC50*) is reported as 0.01 to 1 µM and the EC50 (HCV replicon; [1]) is reported as greater than 10 µM.

With `COc1ccc2c(c1)C=C(C(=O)N1CCOCC1)Cn1c-2c(C2CCCCC2)c2ccc(C(=O)NS(=O)(=O)N3CCOCC3)cc21` [drawing 237] the IC50 (HCV NS5B; Table 1a, read-out: IC50*) was 0.01 to 1 µM and the EC50 (HCV replicon; [3]) was 0.03 to 1 µM.

In the case of `CC(=O)OCC(=O)N1CCN(C(=O)C2=Cc3ccccc3-c3c(C4CCCCC4)c4ccc(C(=O)NS(=O)(=O)N5CCOCC5)cc4n3C2)CC1`, the IC50 (HCV NS5B; Table 1, read-out: IC50*) is reported as 0.01 to 1 µM and the EC50 (HCV replicon; [1]) is reported as 0.07 to 1 µM.

In the case of `CN(C)S(=O)(=O)NC(=O)c1ccc2c(C3CCCCC3)c3n(c2c1)CC(C(=O)N1CCCC(F)(F)C1)=Cc1ccccc1-3`, the IC50 (HCV NS5B; Table 1, read-out: IC50*) is reported as 0.01 to 1 µM and the EC50 (HCV replicon; [1]) is reported as 0.07 to 1 µM.

For `COc1ccc2c(c1)C=C(C(=O)N1CCN(S(C)(=O)=O)CC1)Cn1c-2c(C2CCCCC2)c2ccc(C(=O)NS(=O)(=O)N(C)C)cc21`, the IC50 (HCV NS5B; Table 1, read-out: IC50*) was 0.01 to 1 µM and the EC50 (HCV replicon; [1]) was 0.07 to 1 µM.

In the case of `CN(C)S(=O)(=O)NC(=O)c1ccc2c(C3CCCCC3)c3n(c2c1)CC(C(=O)N1CCN(S(=O)(=O)c2ccccc2)CC1)=Cc1ccccc1-3`, the IC50 (HCV NS5B; Table 1, read-out: IC50*) is reported as 0.01 to 1 µM and the EC50 (HCV replicon; [1]) is reported as 0.07 to 1 µM.

With `COC(=O)c1ccc2c(C3CCCCC3)c3n(c2c1)CC(C(=O)N1CCC(N2CCCCC2=O)CC1)Cc1ccccc1-3` (stereo not shown) the IC50 (HCV NS5B; Table 1, read-out: IC50*) was greater than 1 µM and the EC50 (HCV replicon; [1]) was 0.07 to 1 µM.

`CN(C)S(=O)(=O)NC(=O)c1ccc2c(C3CCCCC3)c3n(c2c1)CC(C(=O)N1CCC(N(C2CC2)S(=O)(=O)c2ccccc2)CC1)=Cc1ccccc1-3` was tested, and the IC50 (HCV NS5B; Table 1, read-out: IC50*) was 0.01 to 1 µM and the EC50 (HCV replicon; [1]) was 0.07 to 1 µM.

`COC(=O)c1ccc2c(C3CCCCC3)c3n(c2c1)CC(C(=O)N1CCC(C(N)=O)C1)=Cc1ccccc1-3` (stereo not shown) showed an IC50 (HCV NS5B; Table 1, read-out: IC50*) greater than 1 µM and an EC50 (HCV replicon; [1]) of 1 to 10 µM.

`COc1ccc2c(c1)CC(NC(=O)N1CCOC(CN3CCCC3)C1)Cn1c-2c(C2CCCCC2)c2ccc(C(=O)NS(=O)(=O)N(C)C)cc21` (stereo not shown) gave an IC50 (HCV NS5B; Table 1a, read-out: IC50*) of 0.01 to 1 µM and an EC50 (HCV replicon; [3]) of 0.03 to 1 µM.

`CN(C)S(=O)(=O)NC(=O)c1ccc2c(C3CCCCC3)c3n(c2c1)CC(C(=O)N1CCN(C(=O)OC(C)(C)C)CC1)=Cc1ccccc1-3` gave an IC50 (HCV NS5B; Table 1, read-out: IC50*) of 0.01 to 1 µM and an EC50 (HCV replicon; [1]) of 0.07 to 1 µM.

For `COc1ccc2c(c1)CC(C(=O)N(C)C1CCOCC1)Cn1c-2c(C2CCCCC2)c2ccc(C(=O)NS(=O)(=O)N(C)C)cc21` (stereo not shown), the IC50 (HCV NS5B; Table 1a, read-out: IC50*) was 0.01 to 1 µM and the EC50 (HCV replicon; [3]) was 0.03 to 1 µM.

`COc1ccc2c(c1)CC(C(=O)N(C)C1CCOCC1)Cn1c-2c(C2CCCCC2)c2ccc(C(=O)O)cc21` (stereo not shown) gave an IC50 (HCV NS5B; Table 1a, read-out: IC50*) of less than 0.02 µM and an EC50 (HCV replicon; [3]) of 0.03 to 1 µM.

`CN(C)S(=O)(=O)NC(=O)c1ccc2c(C3CCCCC3)c3n(c2c1)CC(C(=O)N1CCN2C(=O)c4ccccc4CC2C1)=Cc1ccccc1-3` (stereo not shown) gave an IC50 (HCV NS5B; Table 1, read-out: IC50*) of 0.01 to 1 µM and an EC50 (HCV replicon; [1]) of 0.07 to 1 µM.

`COc1ccc2c(c1)C=C(C(=O)N(C)C[C@@H]1CCCO1)Cn1c-2c(C2CCCCC2)c2ccc(C(=O)O)cc21` was tested, and the IC50 (HCV NS5B; Table 1a, read-out: IC50*) was 0.01 to 1 µM and the EC50 (HCV replicon; [3]) was 1 to 10 µM.

With `COC(=O)c1ccc2c(C3CCCCC3)c3n(c2c1)CC(NC(=O)N1C[C@@H](C)O[C@@H](C)C1)Cc1ccccc1-3` (stereo partly shown) the IC50 (HCV NS5B; Table 1, read-out: IC50*) was greater than 1 µM and the EC50 (HCV replicon; [1]) was greater than 0.12 µM.

With `COc1ccc2c(c1)C=C(C(=O)N1CCN(CCOCCO)CC1)Cn1c-2c(C2CCCCC2)c2ccc(C(=O)NS(=O)(=O)N(C)C)cc21` the IC50 (HCV NS5B; Table 1b, read-out: IC50*) was 0.02 to 1 µM and the EC50 (HCV replicon; [2]) was 0.03 to 1 µM.

`COc1ccc2c(c1)CC(NC(=O)N1C[C@@H](C)O[C@@H](C)C1)Cn1c-2c(C2CCCCC2)c2ccc(C(=O)NS(=O)(=O)N(C)C)cc21` (stereo partly shown) was tested, and the IC50 (HCV NS5B; Table 1a, read-out: IC50*) was 0.01 to 1 µM and the EC50 (HCV replicon; [3]) was 0.03 to 1 µM.

With `O=C(O)c1ccc2c(C3CCCCC3)c3n(c2c1)CC(C(=O)N1CCC(N2C(=O)Cc4ccccc42)CC1)=Cc1ccccc1-3` the IC50 (HCV NS5B; Table 1, read-out: IC50*) was 0.01 to 1 µM and the EC50 (HCV replicon) was 0.07 to 1 µM.

Molecule `COc1ccc2c(c1)C=C(C(=O)N1CC(C(=O)N(C)C)C1)Cn1c-2c(C2CCCCC2)c2ccc(C(=O)NS(=O)(=O)N(C)C)cc21` has an IC50 (HCV NS5B; Table 1b, read-out: IC50*) of 0.02 to 1 µM and an EC50 (HCV replicon; [2]) of 0.03 to 1 µM.

Work on `COC(=O)c1ccc2c(C3CCCCC3)c3n(c2c1)CC(C(=O)N1CCCC(=O)N1)=Cc1ccccc1-3` yielded an IC50 (HCV NS5B; Table 1, read-out: IC50*) greater than 1 µM and an EC50 (HCV replicon; [1]) of 1 to 10 µM.
